Results on seven compounds are retold here after doi:10.1101/2024.08.19.608619, “Discovery of potent SARS-CoV-2 nsp3 macrodomain inhibitors uncovers lack of translation to cellular antiviral response” (bioRxiv, 2024).

As usually defined, the microsomal CLint is the rate of metabolic loss divided by the concentration. Usually IC50 stands for the midpoint of a concentration-inhibition curve. A lower IC50 goes with greater potency in that assay. The inhibition is the percentage by which the read-out fell short of the control.

For series [1], the target named is T1, PI3 Kinase (p110α/p85α)(h) (Homo sapiens, UniProt P42336).
T1 construct: gene PIK3CA
T1 sequence (P42336 whole entry): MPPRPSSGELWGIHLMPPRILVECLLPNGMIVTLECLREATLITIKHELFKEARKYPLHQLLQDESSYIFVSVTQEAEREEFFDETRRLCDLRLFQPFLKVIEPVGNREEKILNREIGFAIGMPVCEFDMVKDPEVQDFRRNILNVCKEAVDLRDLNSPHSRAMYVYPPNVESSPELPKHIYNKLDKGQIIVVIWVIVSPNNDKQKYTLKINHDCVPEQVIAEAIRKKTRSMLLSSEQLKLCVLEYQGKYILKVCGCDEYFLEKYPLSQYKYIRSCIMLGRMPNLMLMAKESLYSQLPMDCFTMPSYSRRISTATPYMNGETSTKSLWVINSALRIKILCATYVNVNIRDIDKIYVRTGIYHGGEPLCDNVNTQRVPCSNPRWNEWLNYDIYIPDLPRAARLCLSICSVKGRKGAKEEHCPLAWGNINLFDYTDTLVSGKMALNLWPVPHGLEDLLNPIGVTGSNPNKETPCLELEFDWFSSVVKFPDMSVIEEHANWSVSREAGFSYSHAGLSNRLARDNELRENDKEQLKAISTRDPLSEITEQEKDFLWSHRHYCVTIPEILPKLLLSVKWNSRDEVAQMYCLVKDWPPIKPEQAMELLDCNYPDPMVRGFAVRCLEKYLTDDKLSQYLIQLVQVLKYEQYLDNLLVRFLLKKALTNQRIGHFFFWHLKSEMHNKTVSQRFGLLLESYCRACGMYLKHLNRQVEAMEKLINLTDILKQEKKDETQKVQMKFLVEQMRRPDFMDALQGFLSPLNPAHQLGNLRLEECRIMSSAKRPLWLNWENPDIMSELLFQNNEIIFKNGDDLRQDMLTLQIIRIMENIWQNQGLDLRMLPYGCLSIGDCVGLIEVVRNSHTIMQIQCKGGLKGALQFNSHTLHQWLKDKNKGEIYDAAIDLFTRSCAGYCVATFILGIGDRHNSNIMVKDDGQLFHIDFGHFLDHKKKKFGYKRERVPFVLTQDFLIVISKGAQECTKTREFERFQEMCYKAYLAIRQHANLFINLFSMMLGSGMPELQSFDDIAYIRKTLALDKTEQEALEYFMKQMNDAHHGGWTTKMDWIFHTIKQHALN
T1 sequence (P27986 whole entry partner): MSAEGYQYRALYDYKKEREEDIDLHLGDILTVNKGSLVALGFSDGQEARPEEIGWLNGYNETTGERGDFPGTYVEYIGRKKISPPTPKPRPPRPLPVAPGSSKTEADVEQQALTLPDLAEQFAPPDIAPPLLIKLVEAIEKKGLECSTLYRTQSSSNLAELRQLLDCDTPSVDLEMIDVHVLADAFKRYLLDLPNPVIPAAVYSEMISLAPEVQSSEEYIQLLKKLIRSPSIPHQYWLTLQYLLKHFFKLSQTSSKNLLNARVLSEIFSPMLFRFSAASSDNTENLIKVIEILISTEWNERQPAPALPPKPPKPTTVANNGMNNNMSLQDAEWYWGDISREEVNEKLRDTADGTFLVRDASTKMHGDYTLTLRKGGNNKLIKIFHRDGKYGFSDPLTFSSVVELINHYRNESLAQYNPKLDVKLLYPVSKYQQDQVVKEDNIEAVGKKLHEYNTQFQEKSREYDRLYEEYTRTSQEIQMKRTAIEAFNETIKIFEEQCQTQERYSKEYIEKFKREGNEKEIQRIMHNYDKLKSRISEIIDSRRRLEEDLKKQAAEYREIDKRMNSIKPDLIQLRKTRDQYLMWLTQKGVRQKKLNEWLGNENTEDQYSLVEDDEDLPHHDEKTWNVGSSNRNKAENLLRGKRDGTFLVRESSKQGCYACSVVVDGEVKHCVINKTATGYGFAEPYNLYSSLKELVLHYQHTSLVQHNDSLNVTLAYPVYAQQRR
The experiment in a line: biochemical. On the set-up: In vitro kinase panel profiling, per cent remaining kinase activity at 10 uM. The note with it: atp_concentration=200, read-out: % of control remaining. From the text:
(§1) We derisk potential for off-target activity by profiling the compound in a CEREP panel, a standard secondary pharmacology assessment, as well as a kinase panel to derisk a potential hinge-binding motif in our leads, and a PARP panel to derisk activity against human […]. Reassuringly, the compounds are selective, with the only off-targets being moderate human CHRM2 and KOR receptors activity associated with ASAP-0011198.

Series [2] deals with T2, IKKα(h) (Homo sapiens, UniProt O15111).
T2 construct: gene CHUK
T2 sequence (O15111 1-745): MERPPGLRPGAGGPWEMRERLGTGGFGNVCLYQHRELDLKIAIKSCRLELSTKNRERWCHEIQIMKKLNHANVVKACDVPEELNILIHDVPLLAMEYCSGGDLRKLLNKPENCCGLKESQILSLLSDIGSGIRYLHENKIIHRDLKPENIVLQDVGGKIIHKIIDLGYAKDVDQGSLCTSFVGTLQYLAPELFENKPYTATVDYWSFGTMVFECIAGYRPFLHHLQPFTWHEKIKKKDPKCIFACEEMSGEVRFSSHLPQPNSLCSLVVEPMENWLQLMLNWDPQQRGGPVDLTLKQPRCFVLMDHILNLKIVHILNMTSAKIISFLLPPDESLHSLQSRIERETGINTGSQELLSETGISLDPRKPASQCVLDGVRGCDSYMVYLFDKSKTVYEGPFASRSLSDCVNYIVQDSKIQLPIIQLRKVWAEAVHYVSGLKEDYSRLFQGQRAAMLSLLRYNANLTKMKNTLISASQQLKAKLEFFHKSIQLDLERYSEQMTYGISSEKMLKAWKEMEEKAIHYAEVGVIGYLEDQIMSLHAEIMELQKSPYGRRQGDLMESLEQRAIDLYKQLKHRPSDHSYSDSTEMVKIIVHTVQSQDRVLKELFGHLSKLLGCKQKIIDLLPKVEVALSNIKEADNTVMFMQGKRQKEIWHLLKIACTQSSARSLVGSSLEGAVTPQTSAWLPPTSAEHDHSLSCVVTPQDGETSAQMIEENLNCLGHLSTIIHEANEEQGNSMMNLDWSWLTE
The experiment in a line: biochemical. On the set-up: In vitro kinase panel profiling, per cent remaining kinase activity at 10 uM. Particulars: atp_concentration=10, read-out: % of control remaining.
Text: as §1

Series [3] concerns the target CDK2/cyclinA(h) (Homo sapiens, UniProt P24941). The experiment in a line: biochemical. On the set-up: In vitro kinase panel profiling, per cent remaining kinase activity at 10 uM. Particulars: atp_concentration=45, read-out: % of control remaining.
Text: as §1

The nature of series [4]: Hepatic microsomal stability, HLM. Particulars: for perc_remaining / t_half / perc_remaining_no_cofactor / microsomal CLint / clint: In vitro human liver microsomal stability; for perc_remaining_no_cofactor: no cofactor; for microsomal CLint: liver microsomes. Type of series: in vitro ADME, human. (In general: Microsomes from liver hold many membrane-bound enzymes, among them those of drug oxidation.)

Series [5] addresses hERG (Homo sapiens, UniProt Q12809). The experiment in a line: In vitro hERG cardiotoxocity. The note with it: for IC50: top test concentration 30 uM. From the text:
Supplement media-1.zip/Cardiotoxicity.csv, table | column: ic50; perc_inhibition_top_conc

For series [6], the target named is T3, COX2(h) (Homo sapiens, UniProt P35354).
T3 construct: purchased Eurofins Cerep (SafetyScreen44), recognised from the panel format
T3 sequence (P35354 18-604): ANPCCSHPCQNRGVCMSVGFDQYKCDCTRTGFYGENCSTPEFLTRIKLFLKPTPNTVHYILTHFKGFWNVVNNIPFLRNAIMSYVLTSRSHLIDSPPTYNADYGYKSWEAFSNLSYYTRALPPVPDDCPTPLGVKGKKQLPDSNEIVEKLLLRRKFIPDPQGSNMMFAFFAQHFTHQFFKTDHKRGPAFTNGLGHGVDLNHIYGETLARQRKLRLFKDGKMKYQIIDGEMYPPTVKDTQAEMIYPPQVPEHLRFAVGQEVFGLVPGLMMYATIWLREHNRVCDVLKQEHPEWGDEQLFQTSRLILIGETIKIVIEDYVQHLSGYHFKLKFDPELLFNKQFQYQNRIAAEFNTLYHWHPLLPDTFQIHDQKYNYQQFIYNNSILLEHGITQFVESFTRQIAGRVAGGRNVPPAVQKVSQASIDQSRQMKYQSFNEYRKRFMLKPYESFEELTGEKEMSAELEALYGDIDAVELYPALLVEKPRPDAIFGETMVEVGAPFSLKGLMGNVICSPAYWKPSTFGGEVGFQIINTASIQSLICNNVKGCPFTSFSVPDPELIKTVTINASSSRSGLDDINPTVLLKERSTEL
The series can be described thus: In vitro CEREP profiling, COX2(h). The series is classed as biochemical. Particulars: test compound concentration 10 uM, Enzyme and Cell-based assays. From the text: Supplement media-1.zip/Safety_Panel_Profile.csv, table | column: perc_inhibition

Where “and” joins values, the source holds several entries; their conditions need not be identical. Identical values can stand only once. Like-named read-outs stand apart in the source and are kept apart here.

Chain of hERG (Q12809 whole entry): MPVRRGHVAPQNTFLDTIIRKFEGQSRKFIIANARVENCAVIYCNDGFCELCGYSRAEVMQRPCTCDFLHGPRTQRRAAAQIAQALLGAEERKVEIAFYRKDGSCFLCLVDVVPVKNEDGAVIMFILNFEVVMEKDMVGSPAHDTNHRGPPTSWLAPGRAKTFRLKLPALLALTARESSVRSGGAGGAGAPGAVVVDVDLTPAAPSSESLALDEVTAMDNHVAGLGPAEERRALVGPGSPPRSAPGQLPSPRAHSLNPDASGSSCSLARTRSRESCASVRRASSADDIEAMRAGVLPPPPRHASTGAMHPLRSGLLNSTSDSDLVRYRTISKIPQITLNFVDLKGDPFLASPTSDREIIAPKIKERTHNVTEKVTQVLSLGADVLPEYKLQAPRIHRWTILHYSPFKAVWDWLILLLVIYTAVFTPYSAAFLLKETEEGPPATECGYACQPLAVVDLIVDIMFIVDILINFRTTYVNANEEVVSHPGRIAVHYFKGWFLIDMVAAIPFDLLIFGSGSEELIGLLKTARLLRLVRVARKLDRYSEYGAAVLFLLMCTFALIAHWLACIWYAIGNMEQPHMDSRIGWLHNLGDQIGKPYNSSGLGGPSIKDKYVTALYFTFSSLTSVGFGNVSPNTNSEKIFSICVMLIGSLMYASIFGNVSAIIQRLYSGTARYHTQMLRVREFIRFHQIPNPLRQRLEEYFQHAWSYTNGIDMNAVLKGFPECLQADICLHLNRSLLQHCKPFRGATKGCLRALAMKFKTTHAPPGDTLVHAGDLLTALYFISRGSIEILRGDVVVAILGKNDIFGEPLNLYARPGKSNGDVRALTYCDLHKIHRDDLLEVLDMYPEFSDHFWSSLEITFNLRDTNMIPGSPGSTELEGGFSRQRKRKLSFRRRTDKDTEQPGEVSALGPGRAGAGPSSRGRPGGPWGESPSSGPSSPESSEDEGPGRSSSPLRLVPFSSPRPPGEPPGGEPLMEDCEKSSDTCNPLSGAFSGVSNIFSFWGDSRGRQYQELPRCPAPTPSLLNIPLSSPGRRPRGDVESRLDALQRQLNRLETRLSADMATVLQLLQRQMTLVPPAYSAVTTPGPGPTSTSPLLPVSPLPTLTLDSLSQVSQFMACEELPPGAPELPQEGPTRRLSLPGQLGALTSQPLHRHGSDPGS

On to `CC(C)C(Nc1ncnc2[nH]ccc12)c1ccc2c(c1)S(=O)(=O)CCC2` (stereo not drawn) [ASAP-0008327], for which the remaining activity at 10 µM in series [1] (batch_name=ASAP-0008327-001) is 104%. The remaining activity at 10 µM in series [2] (batch_name=ASAP-0008327-001) was found to be 91%. Also, the remaining activity at 10 µM in series [3] (batch_name=ASAP-0008327-001) came out at 96%. Moreover, in series [4], the perc_remaining amounted to 53.0%, the t_half was 44.7 min and the perc_remaining_no_cofactor is reported as 99.0%. In series [4] (human), this compound registered an intrinsic clearance (microsomal CLint) of 37 µL/min/mg.
With `COc1ccc([C@@H](Cc2nnn[nH]2)NC(=O)c2ncnc3[nH]ccc23)cc1` [ASAP-0008340], the remaining activity at 10 µM in series [1] (batch_name=ASAP-0008340-001) stood at 101%. For the same compound, the remaining activity at 10 µM in series [2] (batch_name=ASAP-0008340-001) stood at 99%. The remaining activity at 10 µM in series [3] (batch_name=ASAP-0008340-001) amounted to 97%. In addition, in series [4], the clint amounted to 5.0 µL/min/mg, the perc_remaining stood at 86.0%, the t_half is reported as 313.8 min and the perc_remaining_no_cofactor worked out at 110.0%.
Take `CC(C)[C@@H](Nc1ncnc2[nH]c(-c3cnn(C)c3C#N)cc12)c1ccc2c(n1)OCCO2` [ASAP-0008418]: in series [1] (batch_name=ASAP-0008418-001), the remaining activity at 10 µM worked out at 49%. Also, the remaining activity at 10 µM in series [2] (batch_name=ASAP-0008418-001) is 111%. For the same compound, the remaining activity at 10 µM in series [3] (batch_name=ASAP-0008418-001) was 95%. Moreover, in series [4], the clint was 59.0 µL/min/mg and 56.0 µL/min/mg; the perc_remaining is 34.0% and 36.0%; the t_half is 28.1 min and 29.7 min; the perc_remaining_no_cofactor was 98.0% and 104.0%.
As to `CC(C)[C@H](Nc1ncnc2[nH]ccc12)c1ccc2c(c1)S(=O)(=O)CCC2` [ASAP-0008674], the perc_inhibition_top_conc in series [5] (at top test concentration 30 uM) is listed as 39.0%. In series [5], this compound registered a half-maximal inhibitory concentration (IC50) greater than 30 µM. Moreover, in series [1] (batch_name=ASAP-0008674-002), the remaining activity at 10 µM came to 94%. The remaining activity at 10 µM in series [2] (batch_name=ASAP-0008674-002) came to 92%. In series [3] (batch_name=ASAP-0008674-002), the remaining activity at 10 µM worked out at 102%. Besides, in series [4], the clint was 57.0 µL/min/mg, the perc_remaining came to 37.0%, the t_half stood at 29.5 min and the perc_remaining_no_cofactor amounted to 92.0%. Further, the “perc_inhibition: % inhibition of control enzyme activity, COX2(h)” value (“perc_inhibition: % inhibition” for short) in series [6] was found to be 23%.
With `CC(C)[C@H](Nc1ncnc2[nH]c(-c3cnn(C)c3C#N)cc12)c1ccc2c(n1)OCCO2` [ASAP-0010715], half-maximal inhibition in series [5] (IC50) was put at 11 µM. Further, in series [1] (batch_name=ASAP-0010715-002), the remaining activity at 10 µM amounted to 70%. Besides, in series [2] (batch_name=ASAP-0010715-002), the remaining activity at 10 µM amounted to 120%. In series [3] (batch_name=ASAP-0010715-002), the remaining activity at 10 µM was found to be 104%. For the same compound, in series [4], the clint worked out at 17.0 µL/min/mg, the perc_remaining was 78.0%, the t_half is listed as 100.0 min and the perc_remaining_no_cofactor is on record as 116.0%. In series [6], the “perc_inhibition: % inhibition” value is on record as -2%.
In series [5], `CC(C)[C@@H](Nc1ncnc2[nH]c(-c3cnn(C)c3C#N)cc12)c1ccc2c(n1)OCCO2` [ASAP-0010716] came in with an IC50 of 10.1 µM. Moreover, the remaining activity at 10 µM was 55% in series [1] (batch_name=ASAP-0010716-002), 104% in series [2] (batch_name=ASAP-0010716-002) and 104% in series [3] (batch_name=ASAP-0010716-002). In series [6], the “perc_inhibition: % inhibition” value is given as -7%.
With `Cc1nn(C)cc1-c1cc2c(NC(c3ccc4c(c3)S(=O)(=O)CCC4)C(C)C)ncnc2[nH]1` (stereo not drawn) [ASAP-0011446], the remaining activity at 10 µM in series [1] (batch_name=ASAP-0011446-002) came out at 102%. In addition, the remaining activity at 10 µM in series [2] (batch_name=ASAP-0011446-002) stood at 94%. The remaining activity at 10 µM in series [3] (batch_name=ASAP-0011446-002) was 107%. Moreover, the “clearance (metabolic stability), in words” value in series [4] (HLM/MLM) is reported as “moderate-to-high clearance”. In addition, in series [4], the perc_remaining is given as 1.0%, the t_half is given as 6.1 min, the perc_remaining_no_cofactor came out at 113.0% and the microsomal CLint came to 273 µL/min/mg. For the same compound, the inhibition at 10 µM in series [6] (read-out: perc_inhibition: % inhibition of control enzyme activity, COX2(h)) came out at 23%.
